From US9074014B2 (Ipsen Pharma S.A.S., priority 2008, dated 2015)
Where a SMILES comes first, the peptide text is derived from it. Where no end group is shown, it is not given here. [ ]: non-standard residue; d: D form. The star is where a group is joined. Tic = O=C(O)[C@@H]1Cc2ccccc2CN1; Pip = O=C(O)[C@@H]1CCCCN1; Ac6c = NC1(C(=O)O)CCCCC1; Nle = CCCC[C@H](N)C(=O)O; X1 = CCCN1C(=O)CC(*)C1=O; Ac5c = NC1(C(=O)O)CCCC1; Aib = CC(C)(N)C(=O)O

What was measured:
[1] = Rat plasma half-life assay; assay type: in vitro ADME; conditions: rat plasma, 37° C., LC-MS; read-out: Rat Plasma T½ (converted)
Method: (§1) B. Human and Rat Plasma Half-Life Assay
(§2) 50 μL was removed at various times, like at 0, 1, 2, 3, 4, 8, 24, 32, 48, 56, 72 hours, mixed with 5 μL formic acid and 150 μL acetonitrile in a microcentrifuge tube, vertexed, and centrifuged for 10 minutes at 10K rpm. The supernatant was transferred to an injection vial and analyzed by LC-MS. The LC-MS system consisted of an API4000 mass spectrometer with an ESI probe. Positive ion mode and full scan detection were used. HPLC separation was carried out on a Luna 3μ C8 (2), 2×30 mm column with a gradient from 90% A to 90% B in 10 minutes at a flow rate of 0.3 ml/min. Buffer A was 1% formic acid in water and buffer B was 1% formic acid acetonitrile.

[2] = Human plasma half-life assay; assay type: in vitro ADME; conditions: human plasma, 37° C., LC-MS; read-out: Human Plasma T½ (converted)
Method: as §1, §2

Molecule	half-life at 0.1 mg/ml [1]	half-life at 0.1 mg/ml [2]
Y[Aib]EGTFISDY[Ac5c]IA[Nle]DKIHQQDFVNWLLAQKGKKNDWKHNITQ-OH [Example 54, (Aib^2, A5c^11, Nle^14)hGIP(1-42)-OH]	44.1 h	> 56 h
YA[Pip]GTFISDYSI[Aib]MDKIHQQDFVNWLLAQKGKKNDWKHNITQ [Example 65, (hPro^3, Aib^13)hGIP(1-42)-OH]	1.5 h	14.3 h
YAPGTFISDYSI[Aib][Nle]DKIHQQDFVNWLLAQKGKKNDWKHNITQ-OH [Example 62, (Pro^3, Aib^13, Nle^14)hGIP(1-42)-OH]	1.4 h	11.4 h
Y[Aib]EGTF[Ac5c]SDYSIA[Nle]DKIHQQDFVNWLLAQKGKKNDWKHNITQ-OH [Example 58, (Aib^2, A5c^7, Nle^14)hGIP(1-42)-OH]	16.7 h	37.6 h
Y[Aib]EGTF[Ac6c]SDYSIA[Nle]DKIHQQDFVNWLLAQK[Aib]KKNDWKHNITQ-OH [Example 24, (Aib^2, 31, A6c^7, Nle^14)hGIP(1-42)-OH]	24.8 h	> 48 h
Y[Aib]EGTF[Aib]SDYSIAMDKIHQQDFVNWLLAQKGKKNDWKHNITQ-OH [Example 3, (Aib^2, 7)hGIP(1-42)-OH]	5.5 h	> 48 h
Y[Aib]EGTF[Ac6c]SDYSIAMDKIHQQDFVNWLLAQKGKKC(X1)DWKHNITQ-OH [Example 86, [Aib^2, A6c^7, Cys(Psu)^34]hGIP(1-42)-OH]	7 h	4.2 h
Y[Aib]EGTFISDY[Aib]IAMDKIHQQDFVNWLLAQKGKKNDWKHNITQ-OH [Example 1, (Aib^2, 11)hGIP(1-42)-OH]	3.9 h	> 48 h
Y[Aib]EG[Aib]FISDYSIAMDKIHQQDFVNWLLAQKGKKNDWKHNITQ-OH [Example 4, (Aib^2, 5)hGIP(1-42)-OH]	4.8 h	> 48 h
CC[C@H](C)[C@H](NC(=O)[C@H](CO)NC(=O)[C@H](Cc1ccc(O)cc1)NC(=O)[C@H](CC(=O)O)NC(=O)[C@H](CO)NC(=O)C1(NC(=O)[C@H](Cc2ccccc2)NC(=O)[C@@H](NC(=O)CNC(=O)[C@H](CCC(=O)O)NC(=O)C(C)(C)NC(=O)[C@@H](N)Cc2ccc(O)cc2)[C@@H](C)O)CCCCC1)C(=O)N[C@@H](C)C(=O)NC1(C(=O)N[C@@H](CC(=O)O)C(=O)N[C@@H](CCCCN)C(=O)N[C@H](C(=O)N[C@@H](Cc2c[nH]cn2)C(=O)N[C@@H](CCC(N)=O)C(=O)N[C@@H](CCC(N)=O)C(=O)N[C@@H](CC(=O)O)C(=O)N[C@@H](Cc2ccccc2)C(=O)N[C@H](C(=O)N[C@@H](CC(N)=O)C(=O)N[C@@H](Cc2c[nH]c3ccccc23)C(=O)N[C@@H](CC(C)C)C(=O)N[C@@H](CC(C)C)C(=O)N[C@@H](C)C(=O)N[C@@H](CCC(N)=O)C(=O)N[C@@H](CCCCN)C(=O)NCC(=O)N[C@@H](CCCCN)C(=O)N[C@@H](CCCCN)C(=O)N[C@@H](CC(N)=O)C(=O)N[C@@H](CC(=O)O)C(=O)N[C@@H](Cc2c[nH]c3ccccc23)C(=O)N[C@@H](CCCCN)C(=O)N[C@@H](Cc2c[nH]cn2)C(=O)N[C@@H](CC(N)=O)C(=O)N[C@H](C(=O)N[C@H](C(=O)N[C@@H](CCC(N)=O)C(=O)O)[C@@H](C)O)[C@@H](C)CC)C(C)C)[C@@H](C)CC)CCCCC1 [Example 51, (Aib^2, A6c^7, 14)hGIP(1-42)-OH]	12.7 h	33.8 h
CC[C@H](C)[C@H](NC(=O)[C@H](CCCCN)NC(=O)[C@H](CC(=O)O)NC(=O)[C@H](CCSC)NC(=O)C(C)(C)NC(=O)[C@@H](NC(=O)[C@H](CO)NC(=O)[C@H](Cc1ccc(O)cc1)NC(=O)[C@H](CC(=O)O)NC(=O)[C@H](CO)NC(=O)[C@@H](NC(=O)[C@H](Cc1ccccc1)NC(=O)[C@@H](NC(=O)CNC(=O)[C@H](CCC(=O)O)NC(=O)C(C)(C)NC(=O)[C@@H](N)Cc1ccc(O)cc1)[C@@H](C)O)[C@@H](C)CC)[C@@H](C)CC)C(=O)N[C@@H](Cc1c[nH]cn1)C(=O)N[C@@H](CCC(N)=O)C(=O)N[C@@H](CCC(N)=O)C(=O)N[C@@H](CC(=O)O)C(=O)N[C@@H](Cc1ccccc1)C(=O)N[C@H](C(=O)N[C@@H](CC(N)=O)C(=O)N[C@@H](Cc1c[nH]c2ccccc12)C(=O)N[C@@H](CC(C)C)C(=O)N[C@@H](CC(C)C)C(=O)N[C@@H](C)C(=O)N[C@@H](CCC(N)=O)C(=O)N[C@@H](CCCCN)C(N)=O)C(C)C [Example 47, (Aib^2, 13)hGIP(1-30)-NH2] (H-Y[Aib]EGTFISDYSI[Aib]MDKIHQQDFVNWLLAQK-NH2; N-terminus assumed)	30.8 h	45.3 h
Y[Aib]EGTF[Ac5c]SDYSIA[Ac5c]DKIHQQDFVNWLLAQKGKKNDWKHNITQ-OH [Example 59, (Aib^2, A5c^7, 14)hGIP(1-42)-OH]	13.1 h	24 h
Y[Aib]EGTF[Ac6c]SDYSIAMDKIHQQDFVNWLLAQKGKKNC(X1)WKHNITQ-OH [Example 85, [Aib^2, A6c^7, Cys(Psu)^35]hGIP(1-42)-OH]	3.5 h	7.3 h
CC[C@H](C)[C@H](NC(=O)[C@H](CCCCN)NC(=O)[C@H](CC(=O)O)NC(=O)[C@H](CCSC)NC(=O)[C@H](C)NC(=O)[C@@H](NC(=O)C1(NC(=O)[C@H](Cc2ccc(O)cc2)NC(=O)[C@H](CC(=O)O)NC(=O)[C@H](CO)NC(=O)[C@@H](NC(=O)[C@H](Cc2ccccc2)NC(=O)[C@@H](NC(=O)CNC(=O)[C@@H]2CCCCN2C(=O)[C@H](C)NC(=O)[C@@H](N)Cc2ccc(O)cc2)[C@@H](C)O)[C@@H](C)CC)CCCC1)[C@@H](C)CC)C(=O)N[C@@H](Cc1c[nH]cn1)C(=O)N[C@@H](CCC(N)=O)C(=O)N[C@@H](CCC(N)=O)C(=O)N[C@@H](CC(=O)O)C(=O)N[C@@H](Cc1ccccc1)C(=O)N[C@H](C(=O)N[C@@H](CC(N)=O)C(=O)N[C@@H](Cc1c[nH]c2ccccc12)C(=O)N[C@@H](CC(C)C)C(=O)N[C@@H](CC(C)C)C(=O)N[C@@H](C)C(=O)N[C@@H](CCC(N)=O)C(=O)N[C@@H](CCCCN)C(=O)NCC(=O)N[C@@H](CCCCN)C(=O)N[C@@H](CCCCN)C(=O)N[C@@H](CC(N)=O)C(=O)N[C@@H](CC(=O)O)C(=O)N[C@@H](Cc1c[nH]c2ccccc12)C(=O)N[C@@H](CCCCN)C(=O)N[C@@H](Cc1c[nH]cn1)C(=O)N[C@@H](CC(N)=O)C(=O)N[C@H](C(=O)N[C@H](C(=O)N[C@@H](CCC(N)=O)C(=O)O)[C@@H](C)O)[C@@H](C)CC)C(C)C [Example 74, (hPro^3, A5c^11)hGIP(1-42)-OH]	1.3 h	16.3 h
CC[C@H](C)[C@H](NC(=O)[C@H](CO)NC(=O)[C@H](Cc1ccc(O)cc1)NC(=O)[C@H](CC(=O)O)NC(=O)[C@H](CO)NC(=O)[C@@H](NC(=O)[C@H](Cc1ccccc1)NC(=O)C1(NC(=O)CNC(=O)[C@H](CCC(=O)O)NC(=O)C(C)(C)NC(=O)[C@@H](N)Cc2ccc(O)cc2)CCCC1)[C@@H](C)CC)C(=O)N[C@@H](C)C(=O)N[C@@H](CCSC)C(=O)N[C@@H](CC(=O)O)C(=O)N[C@@H](CCCCN)C(=O)N[C@H](C(=O)N[C@@H](Cc1c[nH]cn1)C(=O)N[C@@H](CCC(N)=O)C(=O)N[C@@H](CCC(N)=O)C(=O)N[C@@H](CC(=O)O)C(=O)N[C@@H](Cc1ccccc1)C(=O)N[C@H](C(=O)N[C@@H](CC(N)=O)C(=O)N[C@@H](Cc1c[nH]c2ccccc12)C(=O)N[C@@H](CC(C)C)C(=O)N[C@@H](CC(C)C)C(=O)N[C@@H](C)C(=O)N[C@@H](CCC(N)=O)C(=O)N[C@@H](CCCCN)C(N)=O)C(C)C)[C@@H](C)CC [Example 11, (Aib^2, A5c^5)hGIP(1-30)-NH2]	> 48 h	44.4 h
CC[C@H](C)[C@H](NC(=O)[C@H](CCCCN)NC(=O)[C@H](CC(=O)O)NC(=O)C1(NC(=O)[C@H](C)NC(=O)[C@@H](NC(=O)C2(NC(=O)[C@H](Cc3ccc(O)cc3)NC(=O)[C@H](CC(=O)O)NC(=O)[C@H](CO)NC(=O)[C@@H](NC(=O)[C@H](Cc3ccccc3)NC(=O)[C@@H](NC(=O)CNC(=O)[C@@H]3CC(O)CN3C(=O)[C@H](C)NC(=O)[C@@H](N)Cc3ccc(O)cc3)[C@@H](C)O)[C@@H](C)CC)CCCC2)[C@@H](C)CC)CCCCC1)C(=O)N[C@@H](Cc1c[nH]cn1)C(=O)N[C@@H](CCC(N)=O)C(=O)N[C@@H](CCC(N)=O)C(=O)N[C@@H](CC(=O)O)C(=O)N[C@@H](Cc1ccccc1)C(=O)N[C@H](C(=O)N[C@@H](CC(N)=O)C(=O)N[C@@H](Cc1c[nH]c2ccccc12)C(=O)N[C@@H](CC(C)C)C(=O)N[C@@H](CC(C)C)C(=O)N[C@@H](C)C(=O)N[C@@H](CCC(N)=O)C(=O)N[C@@H](CCCCN)C(=O)NCC(=O)N[C@@H](CCCCN)C(=O)N[C@@H](CCCCN)C(=O)N[C@@H](CC(N)=O)C(=O)N[C@@H](CC(=O)O)C(=O)N[C@@H](Cc1c[nH]c2ccccc12)C(=O)N[C@@H](CCCCN)C(=O)N[C@@H](Cc1c[nH]cn1)C(=O)N[C@@H](CC(N)=O)C(=O)N[C@H](C(=O)N[C@H](C(=O)N[C@@H](CCC(N)=O)C(=O)O)[C@@H](C)O)[C@@H](C)CC)C(C)C (some centres unmarked) [Example 88, (4Hyp^3, A5c^11, A6c^14)hGIP(1-42)-OH]	4.4 h	> 48 h
YA[Tic]GTFISDYSI[Aib]MDKIHQQDFVNWLLAQKGKKNDWKHNITQ [Example 66, (Tic^3, Aib^13)hGIP(1-42)-OH]	8.8 h	19.1 h
Y[Aib]EGTF[Ac6c]SDYSIAMDKIHQQDFVNWLLAQKGKKNDWKHC(X1)ITQ-OH [Example 79, [Aib^2, A6c^7, Cys(Psu)^39]hGIP(1-42)-OH]	14.3 h	–
